Measured values taken from ChEMBL document CHEMBL5620422, “Design, synthesis, and biological evaluation of a series of new anthraquinone derivatives as anti-ZIKV agents” (Eur J Med Chem, 2023).
Calls of active or inactive are those of the source. The rule behind the calls is not given here.

Legend:
[1] = Cytotoxicity against human A549 cells assessed as reduction in cell viability incubated for 48 hrs by MTT assay; assay type: toxicity, cell-based
Zika virus [2] = test: Antiviral activity against ZIKV ZG-01 infected in Vero cells preincubated for 1 hr followed by replacement with fresh media containing compound for 48 hrs by crystal violet staining based plaque assay; assay type: functional
[3] = Cytotoxicity against african green monkey Vero cells assessed as reduction in cell viability incubated for 48 hrs by MTT assay; assay type: toxicity, cell-based; conditions: chlorocebus sabaeus
Zika virus [4] = test: Antiviral activity against ZIKV ZG-01 infected in SNB-19 cells preincubated for 1 hr followed by replacement with fresh media containing compound for 48 hrs by crystal violet staining based plaque assay; assay type: functional
[5] = Cytotoxicity against human SNB-19 cells assessed as reduction in cell viability incubated for 48 hrs by MTT assay; assay type: toxicity, cell-based
Zika virus [6] = test: Antiviral activity against ZIKV ZG-01 infected in JEG-3 cells preincubated for 1 hr followed by replacement with fresh media containing compound for 48 hrs by crystal violet staining based plaque assay; assay type: functional
Zika virus [7] = test: Antiviral activity against ZIKV ZG-01 infected in Vero cells assessed as reduction in viral replication at 20 uM preincubated for 1 hr followed by replacement with fresh media containing compound for 48 hrs by RT-PCR analysis; assay type: functional; design: scale not given: the % may be the effect or the level left; conditions: time 49 hrs
Zika virus [8] = test: Antiviral activity against ZIKV ZG-01 infected in SNB-19 cells assessed as reduction in viral replication at 20 uM preincubated for 1 hr followed by replacement with fresh media containing compound for 48 hrs by RT-PCR analysis; assay type: functional; design: scale not given: the % may be the effect or the level left; conditions: time 49 hrs
Zika virus [9] = test: Antiviral activity against ZIKV ZG-01 infected in SNB-19 cells assessed as reduction in viral envelope protein expression at 5 uM by immunofluorescence assay; assay type: functional, organism-based
Zika virus [10] = test: Antiviral activity against ZIKV ZG-01 infected in JEG-3 cells assessed as reduction in viral envelope protein expression at 5 uM by immunofluorescence assay; assay type: functional, organism-based
Zika virus [11] = test: Antiviral activity against ZIKV ZG-01 infected in SNB-19 cells assessed as reduction in number of viral positive cells at 5 uM by immunofluorescence assay; assay type: functional, organism-based
Zika virus [12] = test: Antiviral activity against ZIKV ZG-01 infected in JEG-3 cells assessed as reduction in number of viral positive cells at 5 uM by immunofluorescence assay; assay type: functional, organism-based
Zika virus [13] = test: Antiviral activity against ZIKV ZG-01 infected in SNB-19 cells assessed as reduction in viral envelope protein level at 1 to 20 uM after 48 hrs by Western blot assay; assay type: functional, organism-based; conditions: dose 1-20 µM
[14] = Toxicity in Ifnar1 knockout C57BL/6 mouse assessed as body weight loss at 60 mg/kg administered for 7 days; assay type: organism-based; conditions: in vivo, 168 h, time 7 day
[15] = Toxicity in Ifnar1 knockout C57BL/6 mouse assessed as corneal opacities at 60 mg/kg administered for 7 days; assay type: organism-based; conditions: in vivo, 168 h, time 7 day
[16] = Toxicity in Ifnar1 knockout C57BL/6 mouse assessed as movement disorders at 60 mg/kg administered for 7 days; assay type: organism-based; conditions: in vivo, 168 h, time 7 day
Zika virus [17] = test: Antiviral activity against ZIKV ZG-01 infected in Ifnar1 knockout C57BL/6 mouse assessed as reduction in number of animal paralysis at 20 mg/kg, iv administered daily for 7 days; assay type: functional, organism-based; conditions: time 7.0 day
Zika virus [18] = test: Antiviral activity against ZIKV ZG-01 infected in Ifnar1 knockout C57BL/6 mouse assessed as reduction in duration of animal paralysis at 20 mg/kg, iv administered daily for 7 days; assay type: functional, organism-based; conditions: time 7.0 day
Zika virus [19] = test: Antiviral activity against ZIKV ZG-01 infected in Ifnar1 knockout C57BL/6 mouse assessed as increase in animal survival at 20 mg/kg, iv administered daily for 7 days; assay type: functional, organism-based; conditions: time 7.0 day
Zika virus [20] = test: Antiviral activity against ZIKV ZG-01 infected in Ifnar1 knockout C57BL/6 mouse assessed as reduction in mortality rate at 20 mg/kg, iv administered daily for 7 days; assay type: functional, organism-based; conditions: time 7.0 day
Zika virus [21] = test: Antiviral activity against ZIKV ZG-01 infected in Ifnar1 knockout C57BL/6 mouse assessed as reduction in weight loss at 20 mg/kg, iv administered daily for 7 days and measured upto 12 dpi; assay type: functional, organism-based; conditions: time <= 12.0 day
Zika virus [22] = test: Antiviral activity against ZIKV ZG-01 infected in Ifnar1 knockout C57BL/6 mouse assessed as reduction in neuronal necrosis by measuring pyknosis at 20 mg/kg, iv administered daily for 7 days and measured upto 12 dpi by H and E staining based analysis; assay type: functional, organism-based; conditions: time <= 12.0 day
Zika virus [23] = test: Antiviral activity against ZIKV ZG-01 infected in Ifnar1 knockout C57BL/6 mouse assessed as reduction in neuronal necrosis by measuring karyolysis at 20 mg/kg, iv administered daily for 7 days and measured upto 12 dpi by H and E staining based analysis; assay type: functional, organism-based; conditions: time <= 12.0 day
Zika virus [24] = test: Antiviral activity against ZIKV ZG-01 infected in human SNB-19 cells assessed as reduction in IL-6 expression at 1 to 5 uM by RT-PCR analysis; assay type: functional, organism-based; conditions: dose 1-5 µM
Zika virus [25] = test: Antiviral activity against ZIKV ZG-01 infected in human SNB-19 cells assessed as reduction in IFNgamma expression at 1 to 5 uM by RT-PCR analysis; assay type: functional, organism-based; conditions: dose 1-5 µM
Zika virus [26] = test: Antiviral activity against ZIKV ZG-01 infected in human JEG-3 cells assessed as reduction in IL-1beta expression at 1 to 5 uM by RT-PCR analysis; assay type: functional, organism-based; conditions: dose 1-5 µM
SNB-19 [27] = test: Antiinflammatory activity in human SNB-19 cells assessed as reduction in IL-1beta expression by RT-PCR analysis; assay type: functional, cell-based
SNB-19 [28] = test: Antiinflammatory activity in human SNB-19 cells assessed as reduction in IL-6 expression by RT-PCR analysis; assay type: functional, cell-based
SNB-19 [29] = test: Antiinflammatory activity in human SNB-19 cells assessed as reduction in IFNgamma expression by RT-PCR analysis; assay type: functional, cell-based
JEG-3 = test: Antiinflammatory activity in human JEG-3 cells assessed as reduction in IL-1beta expression by RT-PCR analysis; assay type: functional, cell-based
Zika virus [30] = test: Antiviral activity against ZIKV ZG-01 infected in human SNB-19 cells assessed as reduction in cell pyroptosis; assay type: functional, organism-based
Zika virus [31] = test: Antiviral activity against ZIKV ZG-01 infected in human JEG-3 cells assessed as reduction in cell pyroptosis; assay type: functional, organism-based
Zika virus [32] = test: Antiviral activity against ZIKV ZG-01 infected in human SNB-19 cells assessed as reduction in LDH release incubated for 36 hrs; assay type: functional, organism-based; conditions: dose 1-5 µM
Zika virus [33] = test: Antiviral activity against ZIKV ZG-01 infected in human JEG-3 cells assessed as reduction in LDH release incubated for 36 hrs; assay type: functional, organism-based; conditions: dose 1-5 µM
Zika virus [34] = test: Antiviral activity against ZIKV ZG-01 infected in human SNB-19 cells assessed as reduction in GSDMD cleavage by Western blot analysis; assay type: functional, organism-based; conditions: dose 1-20 µM
Zika virus [35] = test: Antiviral activity against ZIKV ZG-01 infected in human SNB-19 cells assessed as reduction in GSDME cleavage by Western blot analysis; assay type: functional, organism-based; conditions: dose 1-20 µM
Zika virus [36] = test: Antiviral activity against ZIKV ZG-01 infected in human JEG-3 cells assessed as reduction in GSDMD cleavage by Western blot analysis; assay type: functional, organism-based; conditions: dose 1-20 µM
NS5 = NS5 (Zika virus, UniProt A0A143MHK7); test: Binding affinity to ZIKV RdRP by SPR assay
Chain of NS5 (A0A143MHK7 whole entry): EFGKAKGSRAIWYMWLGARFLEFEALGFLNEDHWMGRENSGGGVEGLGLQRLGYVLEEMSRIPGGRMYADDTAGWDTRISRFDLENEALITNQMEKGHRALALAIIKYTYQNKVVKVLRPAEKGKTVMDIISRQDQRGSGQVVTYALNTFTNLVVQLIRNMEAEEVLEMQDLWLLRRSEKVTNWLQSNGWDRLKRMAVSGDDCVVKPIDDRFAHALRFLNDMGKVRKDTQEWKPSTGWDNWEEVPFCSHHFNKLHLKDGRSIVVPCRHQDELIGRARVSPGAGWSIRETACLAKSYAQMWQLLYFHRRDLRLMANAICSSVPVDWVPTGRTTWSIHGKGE

Structure (SMILES): C[C@]1(O)CC2=C(C[C@@]1(C)O)C(=O)c1c(O)cc(N3CCC(c4ccccc4)CC3)c(O)c1C2=O
- CC50 at 48 h [1]: > 50 µM
- EC90 (Zika virus [2]; ZG-01, Vero, time 49 hrs): 6.4 µM
- Activity (Zika virus [2]; time 49.0 hrs): Dose-Dependent Effect
- CC50 at 48 h [3]: 65.4 µM
- EC90 (Zika virus [4]; ZG-01, SNB-19, time 49 hrs): 6.4 µM
- Activity (Zika virus [4]; time 49.0 hrs): Dose-Dependent Effect
- CC50 at 48 h [5]: 66.1 µM
- EC90 (Zika virus [6]; ZG-01, JEG-3, time 49 hrs): 6.4 µM
- Activity (Zika virus [6]; time 49.0 hrs): Dose-Dependent Effect
- Activity (Zika virus [7]): 100%
- Activity (Zika virus [8]): 100%
- Activity (Zika virus [9]): Active
- Activity (Zika virus [10]): Active
- Activity (Zika virus [11]): Active
- Activity (Zika virus [12]): Active
- Activity (Zika virus [13]): Active
- Activity [14]: Non-Toxic
- Activity [15]: Non-Toxic
- Activity [16]: Non-Toxic
- Activity (Zika virus [17]): Active
- Activity (Zika virus [18]): Active
- Activity (Zika virus [19]): Active
- Activity (Zika virus [20]): Active
- Activity (Zika virus [21]): Active
- Activity (Zika virus [22]): Active
- Activity (Zika virus [23]): Active
- Activity (Zika virus [24]): Active
- Activity (Zika virus [25]): Active
- Activity (Zika virus [26]): Active
- Activity (SNB-19 [27]): inactive
- Activity (SNB-19 [28]): inactive
- Activity (SNB-19 [29]): inactive
- Activity (JEG-3): inactive
- Activity (Zika virus [30]): Active
- Activity (Zika virus [31]): Active
- Activity (Zika virus [32]): Dose-Dependent Effect
- Activity (Zika virus [33]): Dose-Dependent Effect
- Activity (Zika virus [34]): Dose-Dependent Effect
- Activity (Zika virus [35]): Dose-Dependent Effect
- Activity (Zika virus [36]): Dose-Dependent Effect
- Kd (NS5): 10.4 µM
